Molecular target: T1, KRAS-G12D protein (Homo sapiens, UniProt P01116, G12D)
T1 construct: host or cells: Aspc-1 cells
Test: KRAS-G12D protein degradation study in Aspc-1 cells (western blot)
Type: cell-based
Settings: ASPC1, 24 h, Aspc-1 cells treated with 50 nM compound, 24 hours; read-out: Rate of degradation (KRAS^G12D)
Method: Aspc-1 (Cobioer, CBP60546) cells in exponential growth phase were inoculated on a 6-well cell culture plate (Corning, 3516) at density of 1E6/well; and cells in the plate were cultured in 37° C. incubator containing 5% carbon dioxide. The next day, test compounds were dissolved in DMSO (Sigma, RNBF5902) for the preparation of a 10 mM concentration stock solution. The stock solution was diluted with complete medium (RPMI-1640 supplemented with 10% fetal bovine serum, 1% penicillin-streptomycin), yielding working solutions of various concentrations. The plate, after the addition of compounds, was placed in a 5% carbon dioxide incubator, and incubated at 37° C. for 24 hours (final DMSO concentration was 0.1%). The plate was then removed from the incubator, and the cells were washed twice with precooled PBS (Gibco, 14190250), followed by addition of 80 μL RIPA lysis buffer (containing protease inhibitor (Invitrogen™, AM2696)) to each well. The adherent cells were scraped off with a cell scraper, and the cell lysate was transferred to a 1.5 mL centrifuge tube followed with a 30-minute incubation on ice. The lysate was then clarified with centrifugation at 14000 rpm for 10 min at 4° C. The supernatant was transferred into a new 1.5 mL centrifuge tube, and protein concentration was measured with BCA protein detection kit (Thermo Fisher, 23225). KRAS-G12D protein level was assessed by western blot.
A mixture of cell lysate (40 μL) and loading buffer (10 μL 5×SDS (Beyotime, P0015L)) was denatured in a water bath at 95° C. for 10 min. The denatured protein sample, at 30 μL/well, was loaded into the corresponding well of a 4-20% Bis-Tris gel (Kingsley, M00656). Protein samples were initially electrophoresed at 80 V for 30 minutes, followed by 120 V for 40 minutes, until the bromophenol blue strip ran to an appropriate position. After electrophoresis, iBlot2 (Life Technologies, IB21001) was used to transfer the separated samples onto PVDF film. The PVDF membrane was washed with double-distilled water and then blocked in TBST (Thermo Scientific, 28360) buffer containing 5% non-fat milk, for 2 hours. Blocked membrane was rinsed with tris-buffered saline tween-20 (Thermo Scientific, 28360, TBST) three times, 10 minutes each. Membrane was then incubated with 1:1000 diluted KRAS primary antibody (CST, cat #14429S) overnight at 4° C. Membrane was rinsed as described previously followed by 1 hour incubation of secondary antibody at room temperature. After washing the film three times with TBST, ECL color developing solution was applied, and image was captured with Biorad Chemi Doc gel imager. The band gray value was quantified (Image Lab), and protein degradation level was calculated according to the following formula:
Level of RAS protein expression=(RAS-compound/GAPDH)/(RAS-DMSO/GAPDH)
Level of degradation (%)=(1−Rate of RAS protein expression)×100
The symbols “−”, “+”, “++”, and “+++” indicate that the degradation level of KRAS^G12D protein induced by the test compounds was 10% or less, 11 to 30%, 31 to 60%, and greater than 60%, respectively.
Half-maximum degradation concentrations (DC50s) of exemplary test compounds were calculated using GraphPad Prism and their values are shown in Table 6. The symbols “++++”, “+++”, “++” and “+” indicate DC50 equal or less than 10 nM, 11-50 nM, 51-100 nM, and 101-200 nM, respectively.

T1 sequence (P01116 1-188 isoform P01116-2 G12D): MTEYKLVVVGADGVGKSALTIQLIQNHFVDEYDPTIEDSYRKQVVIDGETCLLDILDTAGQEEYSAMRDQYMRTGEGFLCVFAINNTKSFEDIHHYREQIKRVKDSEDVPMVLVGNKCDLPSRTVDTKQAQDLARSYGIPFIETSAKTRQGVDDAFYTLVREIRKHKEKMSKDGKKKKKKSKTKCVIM

| SMILES | inhibition at 0.05 µM [%] |
| --- | --- |
| C#Cc1c(F)ccc2cc(O)cc(-c3ncc4c(N5CC6CCC(C5)N6)nc(OCC5(CN6CCC(C(=O)Nc7ccc8c(C9CCC(=O)NC9=O)nn(C)c8c7)CC6)CC5)nc4c3F)c12 (stereo not shown) [Compound 159] | 31 to 60 |
| C#Cc1c(F)ccc2cc(O)cc(-c3ncc4c(N5CC6CCC(C5)N6)nc(OCC5(CN(C)C(=O)CC(C)(C)CC(=O)N6CCC(c7ccc8c(C9CCC(=O)NC9=O)nn(C)c8c7)CC6)CC5)nc4c3F)c12 (stereo not shown) [Compound 137] | ≤ 10 |
| C#Cc1c(F)ccc2cc(O)cc(-c3ncc4c(N5CC6CCC(C5)N6)nc(OCC5(CN6CCC(CN7CCN(c8cc9c(cc8F)C(=O)N(C8CCC(=O)NC8=O)C9=O)CC7)CC6)CC5)nc4c3F)c12 (stereo not shown) [Compound 141] | 11 to 30 |
| C#Cc1c(F)ccc2cc(O)cc(-c3ncc4c(N5CC6CCC(C5)N6)nc(OCC5(CN6CCC7(CC6)CC(Nc6ccc8c(C9CCC(=O)NC9=O)nn(C)c8c6)C7)CC5)nc4c3F)c12 (stereo not shown) [Compound 167] | > 60 |
| C#Cc1c(F)ccc2cc(O)cc(-c3ncc4c(N5CC6CCC(C5)N6)nc(OCC5(CN6CCC7(CC6)CC(N6CCC(c8ccc9c(c8)C(=O)N(C8CCC(=O)NC8=O)C9=O)CC6)C7)CC5)nc4c3F)c12 (stereo not shown) [Compound 170] | 31 to 60 |
| C#Cc1c(F)ccc2cc(O)cc(-c3ncc4c(N5CC6CCC(C5)N6)nc(OCC5(CN6CCC7(CC6)CC(N6CCN(c8cc9c(cc8F)C(=O)N(C8CCC(=O)NC8=O)C9=O)CC6)C7)CC5)nc4c3F)c12 (stereo not shown) [Compound 152] | 31 to 60 |
| C#Cc1c(F)ccc2cc(O)cc(-c3ncc4c(N5CC6CCC(C5)N6)nc(OCC5(CN6CCC(CN7CCN(c8ccc(C(=O)NC9CCC(=O)NC9=O)nc8)CC7)CC6)CC5)nc4c3F)c12 (stereo not shown) [Compound 136] | ≤ 10 |
| C#Cc1c(F)ccc2cc(O)cc(-c3ncc4c(N5CC6CCC(C5)N6)nc(OCC5(CN6CCC7(CC6)CC(Nc6cccc8c(C9CCC(=O)NC9=O)n[nH]c68)C7)CC5)nc4c3F)c12 (stereo not shown) [Compound 163] | 31 to 60 |
| C#Cc1c(F)ccc2cc(O)cc(-c3ncc4c(N5CC6CCC(C5)N6)nc(OCC5(CN6CC7CN(C(=O)CN8CCC(c9ccc%10c(C%11CCC(=O)NC%11=O)nn(C)c%10c9)CC8)CC7C6)CC5)nc4c3F)c12 (stereo not shown) [Compound 138] | > 60 |
| Cn1nc(C2CCC(=O)NC2=O)c2ccc(C3CCN(CC(=O)N4CCN(CC5(COc6nc(N7CC8CCC(C7)N8)c7cnc(-c8cc(N)cc(Cl)c8C(F)(F)F)c(F)c7n6)CC5)CC4)CC3)cc21 (stereo not shown) [Compound 128] | > 60 |

Same assay, conditions: ASPC1, 24 h, Aspc-1 cells treated with 0.1 μM compound, 24 hours; read-out: Rate of protein degradation (KRAS^G12D)

| SMILES | inhibition at 0.1 µM [%] |
| --- | --- |
| C#Cc1c(F)ccc2cc(O)cc(-c3ncc4c(N5CC6CCC(C5)N6)nc(O[C@@H]5CCN(CCCCCCCCCC(=O)N[C@H](C(=O)N6C[C@H](O)C[C@H]6C(=O)N[C@@H](C)c6ccc(-c7scnc7C)cc6)C(C)(C)C)C5)nc4c3F)c12 [Compound 88] | ≤ 10 |
| C#Cc1c(F)ccc2cc(O)cc(-c3ncc4c(N5CC6CCC(C5)N6)nc(OCC5(CN6CCN(c7ccc8c(c7)C(=O)N(C7CCC(=O)NC7=O)C8=O)CC6)CC5)nc4c3F)c12 (stereo not shown) [Compound 117] | > 60 |
| C#Cc1c(F)ccc2cc(O)cc(-c3ncc4c(N5CC6CCC(C5)N6)nc(OC5CCN(CCCCCCCCCCCCOc6cc(-c7ncsc7C)ccc6CNC(=O)[C@@H]6C[C@@H](O)CN6C(=O)[C@@H](NC(=O)C6(F)CC6)C(C)(C)C)CC5)nc4c3F)c12 [Compound 78] | ≤ 10 |
| C#Cc1c(F)ccc2cc(O)cc(-c3ncc4c(N5CC6CCC(C5)N6)nc(O[C@H]5CCN(CCCCCCCCCCC(=O)N[C@H](C(=O)N6C[C@H](O)C[C@H]6C(=O)N[C@@H](C)c6ccc(-c7scnc7C)cc6)C(C)(C)C)C5)nc4c3F)c12 [Compound 85] | > 60 |
| C#Cc1c(F)ccc2cc(O)cc(-c3ncc4c(N5CC6CCC(C5)N6)nc(OCC5CCN(CCCCCCCCCCC(=O)N[C@H](C(=O)N6C[C@H](O)C[C@H]6C(=O)N[C@@H](C)c6ccc(-c7scnc7C)cc6)C(C)(C)C)C5)nc4c3F)c12 (stereo partly shown) [Compound 56] | 31 to 60 |
| C#Cc1c(F)ccc2cc(O)cc(-c3ncc4c(N5CC6CCC(C5)N6)nc(OCC56CCCN5[C@@H](COC(=O)NCCCCCCCCCC(=O)N[C@H](C(=O)N5C[C@H](O)C[C@H]5C(=O)N[C@@H](C)c5ccc(-c7scnc7C)cc5)C(C)(C)C)CC6)nc4c3F)c12 (stereo partly shown) [Compound 98] | 31 to 60 |
| CCc1c(F)ccc2cc(O)cc(-c3ncc4c(N5CC6CCC(C5)N6)nc(OC5CCN(CCCCCCCCCCC(=O)N[C@H](C(=O)N6C[C@H](O)C[C@H]6C(=O)N[C@@H](C)c6ccc(-c7scnc7C)cc6)C(C)(C)C)CC5)nc4c3F)c12 [Compound 80] | 31 to 60 |
| C#Cc1c(F)ccc2cc(O)cc(-c3ncc4c(N5CC6CCC(C5)N6)nc(OC5CCN(CCCCCCCCCCC(=O)N6CCN(C(=O)C[C@H](NC(=O)[C@@H]7C[C@@H](O)CN7C(=O)[C@@H](NC(=O)C7(F)CC7)C(C)(C)C)c7ccc(-c8scnc8C)cc7)CC6)CC5)nc4c3F)c12 [Compound 103] | ≤ 10 |
| C#Cc1c(F)ccc2cc(O)cc(-c3ncc4c(N5CC6CCC(C5)N6)nc(OC[C@@H]5C[C@@H](NC(=O)N6CCC(c7ccc8c(C9CCC(=O)NC9=O)nn(C)c8c7)CC6)CN5C)nc4c3F)c12 (stereo partly shown) [Compound 95] | 11 to 30 |
| C#Cc1c(F)ccc2cc(O)cc(-c3ncc4c(N5CC6CCC(C5)N6)nc(OC5CCN(CCCCCCCCCC(=O)N6CCN(C(=O)C[C@H](NC(=O)[C@@H]7CC(O)CN7C(=O)[C@@H](NC(=O)C7(F)CC7)C(C)(C)C)c7ccc(-c8scnc8C)cc7)CC6)C5)nc4c3F)c12 (stereo in doubt) [Compound 105] | 31 to 60 |
| C#Cc1c(F)ccc2cc(O)cc(-c3ncc4c(N5CC6CCC(C5)N6)nc(OCC5(CN6CCC(CN7CCN(c8cc9c(cc8F)C(=O)N(C8CCC(=O)NC8=O)C9=O)CC7)CC6)CC5)nc4c3F)c12 (stereo not shown) [Compound 141] | > 60 |
| C#Cc1c(F)ccc2cc(O)cc(-c3ncc4c(N5CC6CCC(C5)N6)nc(OCC5C[C@@H](NC(=O)CCCCCCCCCCC(=O)N6CCC(c7ccc8c(C9CCC(=O)NC9=O)nn(C)c8c7)CC6)CN5C)nc4c3F)c12 (stereo partly shown) [Compound 89] | ≤ 10 |
| C#Cc1c(F)ccc2cc(O)cc(-c3ncc4c(N5CC6CCC(C5)N6)nc(OCC5(CN6CCN(CCCCCCCCCCC(=O)N7CCN(C(=O)C[C@H](NC(=O)[C@@H]8C[C@@H](O)CN8C(=O)[C@@H](NC(=O)C8(F)CC8)C(C)(C)C)c8ccc(-c9scnc9C)cc8)CC7)CC6)CC5)nc4c3F)c12 [Compound 106] | 11 to 30 |
| C#Cc1c(F)ccc2cc(O)cc(-c3ncc4c(N5CC6CCC(C5)N6)nc(OCC5(CN6CCN(C(=O)CN7CCN(c8ccc9c(c8)C(=O)N(C8CCC(=O)NC8=O)C9=O)CC7)CC6)CC5)nc4c3F)c12 (stereo not shown) [Compound 116] | 31 to 60 |
| CCc1c(F)ccc2cc(O)cc(-c3ncc4c(N5CC6CCC(C5)N6)nc(OCC56CCCN5[C@@H](COC(=O)NCCCCC(=O)N[C@H](C(=O)N5C[C@H](O)C[C@H]5C(=O)N[C@@H](C)c5ccc(-c7scnc7C)cc5)C(C)(C)C)CC6)nc4c3F)c12 (stereo partly shown) [Compound 67] | ≤ 10 |

Same assay, conditions: ASPC1, 24 h, Aspc-1 cells treated with 1 μM compound, 24 hours; read-out: Rate of protein degradation (KRAS^G12D)

| SMILES | inhibition at 1 µM [%] |
| --- | --- |
| C#Cc1c(F)ccc2cc(O)cc(-c3ncc4c(N5CC6CCC(C5)N6)nc(OCC5CCN(CCCCCCCCCCC(=O)N[C@H](C(=O)N6C[C@H](O)C[C@H]6C(=O)N[C@@H](C)c6ccc(-c7scnc7C)cc6)C(C)(C)C)C5)nc4c3F)c12 (stereo partly shown) [Compound 56] | > 60 |
| CCc1c(F)ccc2cc(O)cc(-c3ncc4c(N5CC6CCC(C5)N6)nc(OCC56CCCN5[C@@H](COC(=O)NCCCCC(=O)N[C@H](C(=O)N5C[C@H](O)C[C@H]5C(=O)N[C@@H](C)c5ccc(-c7scnc7C)cc5)C(C)(C)C)CC6)nc4c3F)c12 (stereo partly shown) [Compound 67] | 31 to 60 |
| C#Cc1c(F)ccc2cc(O)cc(-c3ncc4c(N5CC6CCC(C5)N6)nc(OC5CCN(CCOCCOCCOCC(=O)N[C@H](C(=O)N6C[C@H](O)C[C@H]6C(=O)NCc6ccc(-c7scnc7C)cc6)C(C)(C)C)CC5)nc4c3F)c12 [Compound 54] | ≤ 10 |

Same assay, conditions: Aspc-1 cells treated with 0.1 μM compound, 24 hours

| SMILES | Rate of protein degradation (KRAS^G12D) |
| --- | --- |
| C#Cc1c(F)ccc2cc(O)cc(-c3ncc4c(N5CC6CCC(C5)N6)nc(OCC5(CN6CCC(c7ccc8c(C9CCC(=O)NC9=O)nn(C)c8c7)CC6)CC5)nc4c3F)c12 (stereo not shown) [Compound 99] | +++ (greater than 60%) |
| C#Cc1c(F)ccc2cc(O)cc(-c3ncc4c(N5CC6CCC(C5)N6)nc(OC[C@@H]5C[C@@H](NC(=O)CCCCCCC(=O)N[C@H](C(=O)N6C[C@H](O)C[C@H]6C(=O)N[C@@H](C)c6ccc(-c7scnc7C)cc6)C(C)(C)C)CN5C)nc4c3F)c12 [Compound 91] | − (10% or less) |

Same assay, conditions: Aspc-1 cells; read-out: DC50 of test compound-induced KRAS^G12D protein degradation

| SMILES | DC50 [nM] |
| --- | --- |
| C#Cc1c(F)ccc2cc(O)cc(-c3ncc4c(N5CC6CCC(C5)N6)nc(OCC5(CN6CCC(c7ccc8c(C9CCC(=O)NC9=O)nn(C)c8c7)CC6)CC5)nc4c3F)c12 (stereo not shown) [Compound 99] | 11 to 50 |

Source: patent US20230321253A1, “BIFUNCTIONAL COMPOUNDS AND PHARMACEUTICAL USES THEREOF” (RISEN (SUZHOU) PHARMA TECH CO., LTD., priority 2022, published 2023)
